Test results as given in patent US4162316A (priority 1975, dated 1979).

The molecules below were run on male guinea-pigs (assay: animal or person). Settings: Cavia porcellus, ip, 2 h, read-out: Antitussive activity ED50-value (i.p.).
Type: in vivo

| Compound | ED50 [mg/kg] |
| --- | --- |
| COc1ccccc1N1CCN(C(Cc2cccc(C)c2)c2ccccc2)CC1 (racemic) [Compound 31, dl-1-(2-Methoxyphenyl)-4-[1-phenyl-2-(3-tolyl)ethyl]-piperazine] | ~6 |
| COc1ccc2c3c1O[C@H]1[C@@H](O)C=C[C@H]4[C@@H](C2)N(C)CC[C@@]341 [L, Codeine phosphate, reference compound] | 12.2 |
| COc1ccccc1N1CCN(C(Cc2cccc(C)c2)c2ccccc2)CC1 (stereo not drawn) [Compound 32, l-1-(2-Methoxyphenyl)-4-[1-phenyl-2-(3-tolyl)ethyl]piperazine] | ~6 |
